According to patent US20060008466A1, “Methods for treating and preventing microbial infections” (University of Saskatchewan, priority 2004, published 2006):
Bridge positions count the residues as written; N and C are the ends. Ends that are not written are not given here.

Legend:
B. pertussis isolates = conditions: cited from earlier work
B. pertussis [1] = assay: In vitro bactericidal activity against B. pertussis in SS medium, viable counts (CFU) on BG agar; assay type: cell-based, B. pertussis strain Tohama I
Method: The B. pertussis strain used in these experiments was Tohama I. Bacterial suspensions were stored at −70° C. in casamino acid plus 10% glycerol. Organisms were initially grown on the surface of Bordet-Gengou (BG) agar containing 15% (vol/vol) defibrinated sheep blood and 40 μg/ml of Cephalexin at 37° C. for 48 hrs. The bacterial cells were harvested and washed in phosphate-buffered saline (PBS, pH 7.2) by centrifugation at 2500 g for 10 min. The pellets were resuspended in saline and adjusted to a specified bacterial titer by determining the optical density at 600 nm using a spectrophotometer; The corresponding viable counts of these suspensions were measured by plating out serial dilutions of the bacterial suspension onto BG-agar and incubating at 37° C. for 4-5 days.
To examine the bactericidal effect of defensin against B. pertussis, 10 μl of bacterial suspension (OD600 nm of 0.2) was added to 200 μl of Stainer and Scholte (SS) broth medium with or without chemically synthesized defensin at different concentrations in a 96 well plate and incubated at 37° C. for up to 30 hours. At the end of each incubation period (6 hrs, 18 hrs, 24 hrs, 30 hrs), the culture medium was immediately removed for quantification of viable bacteria. The culture medium with or without defensin was plated onto BG agar plates and incubated at 37° C. for up to 4 days after which time the number of colonies were counted. The number of surviving bacteria was estimated by colony-forming units (CFU). The results were confirmed by three independent experiments compared with results from control bacterial culture (no peptide).
20, 40 and 80 μg of pBD-1 was added to bacterial culture and incubated at 37° C. Aliquots were removed at 6, 18 and 30 hr post incubation and incubated for 4 days on BG plates at 37° C.
(§1) Bactericidal activity of bronchoalveolar lavage (BAL) fluid obtained from non-infected piglets was analyzed against B. pertussis in vitro. Non-infected piglets, either 4-5 weeks old or newborn piglets (6 hours old, colostrum-deprived or colostrum-fed), were euthanized and BALs were collected in Stainer-Scholte (SS) medium. The BAL fluid was obtained by filling the lungs with 10 ml of SS medium and withdrawing as much fluid as possible (this procedure was performed once). Alveolar macrophages and other cells were removed by centrifugation at 500 g for 10 minutes. BALs (290 μl) were co-cultured in microtiter plates with 10 μl bacterial suspension containing 5-7×10^6 CFU of B. pertussis at 37° C. Supernatants were plated onto BG agar plates at different time points to evaluate the number of viable bacteria. The sensitivity of B. pertussis to synthetically derived pBD-1 and human beta-defensin 2 (hBD-2) was assayed by co-culturing appropriate concentrations of pBD-1 or hBD-2 in SS-medium (280 μl) with 5-7×10^6 CFU (10 μl) bacteria. Plates were incubated at 37° C. for 2, 6, 18 and 24 hours. The same procedures were followed to investigate the inhibitory effects of BAL, pBD-1 and hBD-2 against B. bronchiseptica in vitro.

B. bronchiseptica [2] = assay: In vitro bactericidal activity against B. bronchiseptica, plate counts; assay type: cell-based
Method: (§2) E. coli, Actinobacillus pleuropneumoniae and B. bronchiseptica were grown on agar plates using routine procedures. The bacteria were washed off the plates, washed in saline and subsequently resuspended in media. They were co-incubated with pBD-1 in varying doses and incubated for various time periods (6-48 hours). The bacteria were quantified by plating the suspension onto agar plates.
as §1

[3] = test system: Actinobacillus pleuropneumoniae; assay: In vitro inhibitory activity against Actinobacillus pleuropneumoniae; assay type: cell-based; conditions: FIG. 6A
Method: as §2
(§3) The inhibitory activity of pBD-1 on the Gram-negative bacteria Actinobacillus pleuropneumoniae, Bordetella bronchiseptica, Streptococcus suis and E. coli was also examined. FIGS. 6A-6B show the results on A. pleuropneumoniae, S. suis, B. bronchiseptica and B. pertussis. The results for E. coli are not shown.

Streptococcus suis = assay: In vitro inhibitory activity against Streptococcus suis; assay type: cell-based; conditions: FIG. 6B
Text: as §3

E. coli = assay: In vitro inhibitory activity against E. coli; assay type: cell-based; conditions: results not shown
Method: as §2, §3

B. pertussis [4] = assay: In vivo antimicrobial activity: pBD-1 delivered into lungs of newborn piglets, challenge with B. pertussis
Method: Pregnant Landrace sows were purchased from the Saskatoon Prairie Swine Centre, University of Saskatchewan. Sows were induced to farrow by intramuscular (i.m.) injection of prostaglandin (Planate) (Schering, Quebec, Canada) at day 113 of gestation. Piglets were born at day 114-115 of gestation. Nursing piglets were kept within the same room, but in separated pens and monitored very closely. The piglets were challenged at 3-5 days of age. All experiments were conducted in accordance with the ethical guidelines of the University of Saskatchewan and the Canadian Council for Animal Care (CCAC).
Newborn piglets were anaesthetized with isoflurane and intubated using a laryngoscope. Infection was initiated by delivering 5×10^9 CFU of B. pertussis strain Tohama I intrapulmonarily (craniodorsal of the bifurcation) through a MICRO-RENATHANE tube (0.95) (Braintree Scientific Inc., Braintree, Mass., USA), which was inserted through an endotracheal tube (3 mm) (Jorgensen Laboratories Inc. Loveland, Colo., USA). The bottom-end of the MICRO-RENATHANE tube was sealed and minute holes were made for the equal distribution of bacteria. Piglets were monitored twice daily for clinical symptoms including fever and respiratory symptoms such as nasal discharge, non paroxysmal cough and breathing difficulties. Piglets were euthanized by i.p. injection of 5 ml of Euthanyl (Sodium barbiturate; Bimeda-MTC, Ont, Canada) at different time points over a 10 day period post challenge. The thoracic and the abdominal cavities and the lungs were examined for any lesions and abnormalities such as pleuritis or local collections of blood and fluids in the thorax were noted.
The antimicrobial activity of pBD-1 was tested in vivo by delivery of pBD-1 into the lungs of newborn piglets prior to challenge with B. pertussis. Pregnant sows, Landrace, were purchased from Saskatoon Prairie Swine Centre, University of Saskatchewan. Sows were farrowed out by i.m. injection of prostaglandin (Planate). Three to four day old colostrum-fed piglets were anaesthetized with isoflurane. 500 μg of pBD-1 dissolved in 1.5 ml PBS was delivered to the lung using a tube placed through the trachea in front of the bifurcation which marks the beginning of the lung (craniodorsal of bifurcation). A volume of 1.5 ml was delivered. Following the delivery of the pBD-1, all piglets were challenged with 5×10^9 cfu bacteria (n=10) by the same procedure. Control animals received saline instead of pBD-1 and were subsequently challenged. Piglets were kept with their sows within the same room in separated pens. Piglets were monitored twice a day.
In addition, the number of bacteria in BAL fluid and lung lesions was examined over a 10 day period. The BAL fluid was obtained by filling the lungs with 15 ml of SS-medium and withdrawing as much fluid as possible. To quantify the presence of B. pertussis in the BAL, fluid samples were centrifuged to remove debris and host cells; supernatant and dilutions thereof were plated onto BG plates and incubated at 37° C. for up to a week. To determine the number of bacteria within tissues, lesions were excised, weighed, homogenized and plated onto BG agar plates.

B. pertussis [5] = assay: Transmission electron microscopy of B. pertussis after pBD-1 treatment; assay type: cell-based; conditions: 20 and 40 μg/ml; 60 minutes at 37° C.
Method: (§4) To determine the potential mechanism of action of pBD-1, transmission electron microscopy (TEM) was employed to evaluate the effect of pBD-1 on the bacterial membrane of B. pertussis and B. bronchiseptica following treatment with pBD-1. pBD-1 was added at a final concentration of 20 μg/ml or 40 μg/ml to 5-9×10^9 CFU bacteria and incubated for 60 minutes at 37° C. Bacteria were washed with PBS, fixed with an equal volume of 5% glutaraldehyde in 0.1 M sodium cacodylate buffer (pH 7.4), and centrifuged at 5000 g for 5 minutes. Cells were resuspended in 1% agarose and pelleted. The bacterial pellets were stored in the fixative (2.5% glutaraldehyde) at 4° C. for 2 hours. The samples were dehydrated and en bloc stained with uranyl acetate in a series of ethanol concentrations and then embedded in Epon/Araldite. Thin sections were cut using an ultramicrotome with a diamond knife, mounted on specimens grids and stained with uranyl acetate and lead citrate before being examined on a transmission electron microscope (Philips 410LS) operating at 80 kV and at magnification ranging from 24000-55000×.

B. bronchiseptica [6] = assay: Transmission electron microscopy of B. bronchiseptica after pBD-1 treatment; assay type: cell-based; conditions: 80 μg/ml
Method: as §4, with “bronchiseptica following treatment with pBD-1. pBD-1 was added at a final concentration of 20 μg/ml or 40 μg/ml to 5-9×10^9 CFU bacteria” left out

Escherchia coli = conditions: 40 μg/ml; cited from earlier work
Salmonella typhimurium = conditions: 40 μg/ml; cited from earlier work
Listeria monocytogenes = conditions: 40 μg/ml; cited from earlier work
Candida albicans = conditions: 40 μg/ml; cited from earlier work

Question: Which “effect on B. pertussis isolates” value (B. pertussis isolates) does the source give for “human β-defensin-1: human β-defensin-1, cited from Baneman et al. as without effect on B. pertussis (DHYNCVSSGGQCLYSACPIFTKIQGTCYRGKAKCCK; ends and bridges not checked; cysteine pairing not given here; UniProt P60022 33-68, looked up)” here?
Answer: no effect

Question: With “H-KNIGNSVSCLRNKGVCMPGKCAPKMKQIGTCGMPQVKCCKRK-NH2 (disulfide 9-38, 16-31, 21-39) [pBD-1]” as the substance, how does the “bactericidal activity in diluted SS medium” value (B. pertussis [1]; 10 μg/ml, 1/10 diluted SS medium in PBS, shorter period of time (FIG. 5B)) read?
Answer: even stronger bactericidal activity

Question: What about the “growth inhibition in comparison with control medium” value (B. pertussis [1]; 20 μg/ml, 6 hours, repeated assay (FIG. 5A)) of the same substance?
Answer: at least 2 logs

Question: And the “inhibition of B. pertussis growth” value (B. pertussis [1]; 40 μg/ml, 18 hours of incubation (FIG. 4))?
Answer: complete inhibition

Question: What about the “neutralization of 5-8×10^6 CFU of B. pertussis” value (B. pertussis [1]; 80 μg/ml, 18 hours, repeated assay (FIG. 5A)) of the same substance?
Answer: completely neutralized

Question: What about the “effect of serum on antimicrobial activity” value (B. pertussis [1]; 10-50% rabbit serum added to the medium) of the same substance?
Answer: did not inhibit

Question: And the “inhibitory effect against B. pertussis, dependence” value (B. pertussis [1]; 20, 40, 80 μg, 6, 18, 30 hr)?
Answer: dose and time dependent

Question: What about the “antimicrobial activity against B. pertussis on addition of salt” value (B. pertussis [1]; addition of salt) of the same substance?
Answer: significantly reduced

Question: And the “reduction in bacterial growth compared to untreated control wells” value (B. pertussis [1]; after 6 hours of incubation, 20-80 μg pBD-1)?
Answer: about 2 logs

Question: What about the “reduction of bacterial growth” value (B. pertussis [1]; after 18 hours, depending on the dose used) of the same substance?
Answer: more than 100,000 fold

Question: What about the “reduction of the bacterial growth” value (B. pertussis [1]; after 30 hours) of the same substance?
Answer: 1,000,000 fold

Question: And the “growth of B. bronchiseptica” value (B. bronchiseptica [2]; 40 μg/ml, 6 and 24 hours (FIG. 7B))?
Answer: unaffected

Question: And the “susceptibility of B. bronchiseptica” value (B. bronchiseptica [2]; 160 μg/ml, up to 48 hours incubation)?
Answer: resistant

Question: What about the inhibitory activity (B. bronchiseptica [2]; FIG. 6C) of the same substance?
Answer: Inhibitory activity was observed against all of these organisms except B. bronchiseptica

Question: What about the inhibitory activity [3] of the same substance?
Answer: Inhibitory activity was observed

Question: And the inhibitory activity (Streptococcus suis)?
Answer: Inhibitory activity was observed

Question: What about the inhibitory activity (E. coli) of the same substance?
Answer: Inhibitory activity was observed

Question: And the “protection of infected piglets” value (B. pertussis [4]; 500 μg into the lung at time of challenge, 5×10^9 CFU B. pertussis)?
Answer: complete protection

Question: And the “clinical symptoms (fever, respiratory symptoms)” value (B. pertussis [4]; 500 μg into the lung, all treated animals, all controls had fever and respiratory symptoms)?
Answer: no clinical symptoms

Question: And the “clinical symptoms and pathological alterations” value (B. pertussis [4]; 500 μg, at 2, 4, 7 and 10 days post infection)?
Answer: total absence

Question: And the “lesions in the histopathology of lung tissues” value (B. pertussis [4]; 500 μg, compared with challenged control piglets)?
Answer: either minor or no lesions

Question: What about the “numbers of bacteria in homogenized lung tissues” value (B. pertussis [4]; 500 μg, days 2, 4, 7 and 10 post infection, p<0.005 (FIG. 10B)) of the same substance?
Answer: significantly lower numbers of bacteria

Question: And the “numbers of isolated bacteria in BALs” value (B. pertussis [4]; 500 μg, days 2, 4 and 7 post infection, p<0.0001 (FIG. 10A))?
Answer: significantly reduced

Question: And the “morphological effect on the bacterial cell surface” value (B. pertussis [5])?
Answer: substantial morphological damage

Question: What about the “ultrastructural effect on bacteria” value (B. bronchiseptica [6]) of the same substance?
Answer: did not result in major ultrastructural abnormalities or discrete holes

Question: What about the salt-dependent bactericidal activity (Escherchia coli) of the same substance?
Answer: has been demonstrated

Question: What about the salt-dependent bactericidal activity (Salmonella typhimurium) of the same substance?
Answer: has been demonstrated

Question: What about the salt-dependent bactericidal activity (Listeria monocytogenes) of the same substance?
Answer: has been demonstrated

Question: What about the salt-dependent bactericidal activity (Candida albicans) of the same substance?
Answer: has been demonstrated
